In US20250090996A1, “ACID GAS REMOVAL METHOD, ACID GAS ABSORBENT, AND ACID GAS REMOVAL APPARATUS” (KABUSHIKI KAISHA TOSHIBA, priority 2023, published 2025):

Key:
[1] = Phase state of amine/water mixture before and after carbon dioxide absorption; assay type: physicochemical; settings: volume ratio 50:50
[2] = S concentration of aqueous phase after adding sulfuric acid (ICP); assay type: physicochemical; settings: 1 ml of 1 mol/l sulfuric acid added to 30 ml of mixture with water (volume ratio 50:50), after stirring
Procedure: When the compound (a-1) and water were blended at a volume ratio of 50:50, two phases of an organic phase as an upper phase and an aqueous phase as a lower phase were formed. One (1) ml of 1 mol/1 sulfuric acid was added to 30 ml of the mixture, and, after stirring, the S concentration of the aqueous phase was measured by ICP. As a result, the S concentration was 17.6 mg-S/L (Reference Example 1).

[3] = Amount of compound dissolved in water (total organic carbon of lower aqueous phase); assay type: physicochemical; settings: 25° C., atmospheric pressure, converted from total organic carbon of lower phase
Excerpt: An acid gas absorbent according to the embodiment contains an amine compound and water, as main agents for absorbing an acid gas. The amine compound used here is a liquid amine compound having a secondary amine structure. An acid gas remover contains a mixture of the liquid amine compound and water, and an amount of a salt to be dissolved in water is larger than an amount of the liquid amine compound itself to be dissolved in water, the salt being formed from the liquid amine compound and the acid gas. Here, the liquid amine compound is an amine compound that is liquid at 25° C. under atmospheric pressure. An amount of the liquid amine compound to be dissolved at room temperature is generally small, and, for example, an amount of the liquid amine compound to be dissolved in water at 25° C. is 50,000 mg/L or less. Upon contact of the liquid amine compound with the acid gas, a salt is formed, and is ionized when water coexists, to increase the dissolved amount. The amount of such a salt to be dissolved is, for example, 2 times or more, preferably 5 times or more, and more preferably 10 times or more the amount of the liquid amine to be dissolved as a base at 25° C. In the present embodiment, the dissolved amount (mg/L) is a mass (mg) of the liquid amine based on a total volume (L) of water and the liquid amine compound.
(§1) When a compound (a-1) of General Formula (a) wherein R^1 and R^3 are 1-ethylpropyl groups and R^2 is C3 linear alkyl and water were blended at a mass ratio of 50:50, two phases of an organic phase (amine compound phase) as an upper phase and an aqueous phase as a lower phase were formed. […] The temperature in the column was changed in a range of 60° C. to 70° C., and an inert gas was caused to flow at 50 ml/min. […] Here, the amount of carbon dioxide saturated and absorbed is a value obtained by measuring the amount of inorganic carbon in the acid gas absorbent with an infrared gas concentration measuring apparatus. The amount of this compound dissolved was 18,000 mg/L at 25° C. and under atmospheric pressure. The amount of the compound dissolved was determined by sampling the lower phase of the two phases fractionated, measuring the total organic carbon concentration with a total organic carbon meter TOC-L (trade name) manufactured by Shimadzu Corporation, and converting it into the amount of amine dissolved from the chemical formula of the compound (a-1).

[4] = Regeneration (carbon dioxide release) on heated molecular sieve 4A column; settings: column 60° C. to 70° C., inert gas 50 ml/min, fractionated
Procedure: as §1

[5] = Phase state of amine/water mixture before and after carbon dioxide absorption; assay type: physicochemical; settings: for phase state after absorbing carbon dioxide: mixture with water 50:50 after CO2:N2=1:9 bubbling; for phase state when blended with water: ratio 50:50, before carbon dioxide absorption, organic upper phase, aqueous lower phase
Excerpt: Here, in the present embodiment, the “state in which the organic phase and the aqueous phase are phase-separated” means that, for example, a mixture of water and a liquid amine has a relationship in which a state in which the organic phase and the aqueous phase are phase-separated, in other words, a boundary between the organic phase and the aqueous phase can be visually confirmed. Here, in the present embodiment, the organic phase is a phase containing the liquid amine compound as a main component in a state of being phase-separated, and is also a phase containing a high concentration of the liquid amine compound in a state of being separated from the acid gas. The aqueous phase is a phase containing water as a main component in a state of being phase-separated. At a high carbon dioxide concentration, the acid gas absorbent has an increased amount of the liquid amine compound to be dissolved in water, and the liquid amine compound is dissolved in an aqueous solution. In the acid gas absorbent, the organic phase and the aqueous phase are not phase-separated in this state (the acid gas absorbent has one phase). At a low acid gas concentration, the acid gas absorbent is decreased in solubility of the liquid amine compound in water, and is phase-separated into an aqueous phase and an organic phase containing a high concentration of the liquid amine compound. When the acid gas absorbent is phase-separated, the organic phase and the aqueous phase typically form complete two phases. However, in the present embodiment, even when it is not completely phase-separated, the organic phase and the aqueous phase are referred to as “two phases” in a case where a boundary between the phases can be confirmed.
Hereinafter, Examples of the embodiment will be described. In the following Examples, conditions before heating the acid gas absorbent were 25° C. and atmospheric pressure.
as §1

| Compound | phase state when blended with water [1] | S concentration of the aqueous phase [2] | amount of compound dissolved [3] | phase state of mixture after passing through column [4] | phase state after absorbing carbon dioxide [5] | phase state when blended with water [5] |
| --- | --- | --- | --- | --- | --- | --- |
| CCC(CC)NCCCNC(CC)CC [compound (a-1)] | two phases | 17.6 mg-S/L | 18,000 mg/L | two phases were formed | formed one phase | two phases |
| CCC(CC)NCCCN(C)CCCNC(CC)CC [compound (b-1)] | – | – | 22,000 mg/L | two phases were formed | formed one phase | two phases |
| CC(C)CC(C)NCCCN(C)CCCNC(C)CC(C)C (stereo not shown) [compound (b-2)] | – | – | 4,000 mg/L | two phases were formed | formed one phase | two phases |
| CC(C)CC(C)NCCCNCCCNC(C)CC(C)C (stereo not shown) [compound (b-3)] | – | – | 11,000 mg/L | two phases were formed | formed one phase | two phases |
| CC(C)N(C)C(C)C [diisopropylmethylamine, reference compound] | – | – | – | – | – | two phases |
